Experimental findings from patent publication US9487479B2, “Small molecule inhibitors of N-terminus activation of the androgen receptor” (The University of British Columbia, priority 2008, dated 2016) are described below.

One assay deals with T1, androgen receptor (AR) (Homo sapiens, UniProt P10275, T878A).
T1 construct: endogenous in cells; host or cells: LNCaP human prostate cancer cells
T1 sequence (P10275 1-920 T878A): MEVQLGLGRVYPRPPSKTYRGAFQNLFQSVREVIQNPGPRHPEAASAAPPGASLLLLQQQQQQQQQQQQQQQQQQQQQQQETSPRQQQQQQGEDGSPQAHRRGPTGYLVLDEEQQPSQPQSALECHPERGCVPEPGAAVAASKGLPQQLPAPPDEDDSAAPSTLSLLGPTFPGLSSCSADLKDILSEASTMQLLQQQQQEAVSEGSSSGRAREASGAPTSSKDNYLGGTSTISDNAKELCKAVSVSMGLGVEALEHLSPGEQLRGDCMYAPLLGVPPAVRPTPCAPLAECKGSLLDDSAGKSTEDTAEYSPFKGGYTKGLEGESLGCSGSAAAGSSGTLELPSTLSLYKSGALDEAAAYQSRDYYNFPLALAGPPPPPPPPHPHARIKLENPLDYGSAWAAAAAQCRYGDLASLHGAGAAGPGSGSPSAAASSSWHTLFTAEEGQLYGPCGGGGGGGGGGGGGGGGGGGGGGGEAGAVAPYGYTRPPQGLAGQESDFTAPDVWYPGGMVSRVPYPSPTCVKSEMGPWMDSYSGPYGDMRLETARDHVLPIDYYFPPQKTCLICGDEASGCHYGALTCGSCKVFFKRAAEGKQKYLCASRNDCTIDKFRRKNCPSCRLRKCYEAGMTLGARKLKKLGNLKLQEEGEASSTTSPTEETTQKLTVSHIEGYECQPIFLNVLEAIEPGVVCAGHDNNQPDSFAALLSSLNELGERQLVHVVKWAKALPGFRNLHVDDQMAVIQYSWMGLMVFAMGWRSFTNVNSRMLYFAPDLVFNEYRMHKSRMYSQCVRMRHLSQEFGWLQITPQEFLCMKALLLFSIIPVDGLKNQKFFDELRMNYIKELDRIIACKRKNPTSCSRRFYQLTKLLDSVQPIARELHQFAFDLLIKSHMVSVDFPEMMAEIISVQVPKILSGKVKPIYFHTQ
The assay is described as follows: PSA (6.1 kb)-luciferase reporter assay in LNCaP cells. The settings on record: R1881 1 nM, 24 hours; for inhibition of R1881 induction of PSA (6.1)-luciferase: 1 hour pretreatment. Format: cell-based. On the procedure:
White bars represent no steroid (ethanol control). Wherein glucocorticoid receptor (GR) and progesterone receptor (PR).
The cells were harvested 24 hours later and analyzed for luciferase activity. The data is normalized to protein that was measured using Bradford assay.
Sequence similarities of amino acids in the AR with related human steroid receptors (glucocorticoid receptor (GR) and progesterone receptor (PR)) are significant in some domains such as the DNA-binding-domain (DBD). Although the AR-NTD shares less than 15% homology with the PR and GR, these receptors do interact with some of the same proteins such as SRC-1 (steroid receptor coactivator-1). […] Cells were co-transfected with expression plasmids for full-length hGR and PRβ and the relative reporter (i.e., pGR-Luc or PRE-E1b-Luc reporters). Cells were then treated with ethanol vehicle, dexamethasone (GR), 4-pregnene-3,20 dione (progesterone) (PR) followed by measurement of luciferase activity.
Activation of the endogenous AR was measured in LNCaP human prostate cancer cells by measuring an androgen-responsive reporter containing androgen response elements (AREs). The PSA (6.1 kb)-luciferase reporter gene construct contains several well-characterized AREs and is induced by androgen.

Another assay deals with LNCaP cells. The assay is described as follows: Androgen-dependent proliferation of LNCaP cells (BrdU incorporation). The class given is cell-based, human. The settings on record: R1881 0.1 nM, 3 days. The procedure: BrdU incorporation was measured 3 days later to indicate changes in proliferation in response to androgen (see FIG. 3B).
In general terms: Incorporation of labelled thymidine or its analogues reports DNA synthesis.

A further assay has as its system PSA mRNA. Put plainly: Androgen-induced PSA mRNA levels in LNCaP cells (qRT-PCR). Format: cell-based, human. As to conditions: R1881 1 nM, 16 hours; for inhibition of androgen-induced levels of PSA mRNA: 10 μg/ml, 1 hour pretreatment. The procedure: Levels of PSA mRNA were measured by quantitative real-time (qRT)-PCR and normalized to levels of GAPDH mRNA (housekeeping gene). White bar: no R1881. Black bars: R1881 (1 nM). MNE: mean normalized expression. DMSO (no R1881) was arbitrarily set at 1.0 for each individual experiment. Bars represent the mean±SE from 3 separate experiments using triplicate technical samples from each experiment.
PSA is an androgen-regulated gene containing several well-characterized androgen response elements (AREs) in the enhancer and promoter regions. Levels of PSA mRNA are induced by androgen by a mechanism dependent androgen receptor. To test if sintokamides would also block endogenous gene expression induced by androgen, levels of PSA mRNA were measured in response to the synthetic androgen R1881.
On the technique in general: Quantitative PCR measures a nucleic acid by following its amplification.

On to `C[C@]1(O)CC[C@H]2[C@@H]3CCC4=CC(=O)CCC4=C3C=C[C@@]21C` [Sintokamide R1881, R1881, reference compound], for which the “induction of PSA-luciferase activity” value at androgen receptor (AR) is on record as “approximately 6 fold”. Also, the “proliferation over control (BrdU incorporation)” value in the assay on LNCaP cells is given as “increased proliferation over control”. Besides, the “induction of levels of PSA mRNA” value in the assay on PSA mRNA is “at least 3 fold”.

Regarding `CCC(=O)N[C@H](C[C@H](C)C(Cl)(Cl)Cl)C(=O)N1C(=O)C=C(OC)[C@@H]1CC(C)C` [CB2.1, Sintokamide E], the “inhibition of R1881 induction of PSA (6.1)-luciferase” value (“inhibition of R1881 induction of PSA” below) on androgen receptor (AR) (5 μg/ml) is recorded as “inhibition”.

Consider `CCC(=O)N[C@H](CC(C)C)C(=O)N1C(=O)C=C(OC)[C@@H]1CC(C)C` [non-chlorinated sintokamide, N—((R)-1-((S)-2-isobutyl-3-methoxy-5-oxo-2,5-dihydro-1H-pyrrol-1-yl)-4-methyl-1-oxopentan-2-yl)propionamide], for which the “inhibition of R1881 induction of PSA” value on androgen receptor (AR) (10 μM) was “some activity”.

Consider `CCC(=O)N[C@H](C[C@H](C)C(Cl)Cl)C(=O)N1C(=O)C=C(OC)[C@@H]1C[C@H](C)C(Cl)Cl` [CB1.1, Sintokamide C], for which the “inhibition of R1881 induction of PSA” value at androgen receptor (AR) (5 μg/ml) is listed as “inhibition”.

As for `CCC(=O)N[C@H](C[C@H](C)C(Cl)(Cl)Cl)C(=O)N1C(=O)C=C(OC)[C@@H]1C[C@H](C)C(Cl)(Cl)Cl` [CB4.0, Sintokamide B], the “inhibition of R1881 induction of PSA” value at androgen receptor (AR) (5 μg/ml) was “inhibition”. For the same compound, the “inhibition of androgen-induced levels of PSA mRNA” value in the assay with PSA mRNA is recorded as “inhibit”.

As for Dysamide A [CB3.0], the “inhibition of R1881 induction of PSA” value on androgen receptor (AR) (5 μg/ml) was “some activity”; on androgen receptor (AR) (5 μg/ml, listed as Dysimide A), “inhibition”. In the assay on PSA mRNA, the “inhibition of androgen-induced levels of PSA mRNA” value was “inhibit”.
